Structures can show the parent of a compound that is named as a salt.
What was measured:
[1] = biological target: T1, Brd4 bromodomain 1 (Homo sapiens, UniProt O60885); assay: Inhibition of tetra-acetylated histone H4 binding to BET bromodomain (TR-FRET); parameters: key: Active: Compounds with an IC50 value less than 30 μM were deemed to be active.; Not Active: Compounds with an IC50 value less than 30 μM were deemed to be active; conditions: Brd4 bromodomain 1, tetra-acetylated histone H4 peptide
T1 construct: made in house; host or cells: E. coli BL21(DE3)
Protocol: Proteins were cloned and overexpressed with a N-terminal 6×His tag, then purified by nickel affinity followed by size exclusion chromatography. Briefly, E. coli BL21(DE3) cells were transformed with a recombinant expression vector encoding N-terminally Nickel affinity tagged bromodomains from Brd2, Brd3, Brd4. Cell cultures were incubated at 37° C. with shaking to the appropriate density and induced overnight with IPTG. The supernatant of lysed cells was loaded onto Ni-IDA column for purification. Eluted protein is pooled, concentrated and further purified by size exclusion chromatography. Fractions representing monomeric protein were pooled, concentrated, aliquoted, and frozen at −80° C. for use in subsequent experiments.
Binding of tetra-acetylated histone H4 and BET bromodomains was confirmed by a Time Resolved Fluorescence Resonance Energy Transfer (TR-FRET) method. N-terminally His-tagged bromodomains (200 nM) and biotinylated tetra-acetylated histone H4 peptide (25-50 nM, Millipore) were incubated in the presence of Europium Cryptate-labeled streptavidin (Cisbio Cat. #610SAKLB) and XL665-labeled monoclonal anti-His antibody (Cisbio Cat. #61HISXLB) in a white 96 well microtiter plate (Greiner). For inhibition assays, serially diluted test compound was added to these reactions in a 0.2% final concentration of DMSO. Final buffer concentrations were 30 mM HEPES pH 7.4, 30 mM NaCl, 0.3 mM CHAPS, 20 mM phosphate pH 7.0, 320 mM KF, 0.08% BSA). After 2 hours incubation at room temperature, the fluorescence by FRET was measured at 665 and 620 nm by a SynergyH4 plate reader (Biotek). The binding inhibitory activity was shown by a decrease in 665 nm fluorescence relative to 620 nm. IC50 values were determined from a dose response curve.

[2] = test system: hIL-6 mRNA; assay: Inhibition of hIL-6 mRNA transcription in LPS-stimulated U937 macrophages; format: cell-based, human; parameters: key: Active: Compounds with an IC50 value less than 30 μM are deemed to be active.; Not Active: Compounds with an IC50 value less than 30 μM are deemed to be active; conditions: U937 cells differentiated with PMA, 1 h pretreatment, LPS 3 h
Protocol: In this example, hIL-6 mRNA in tissue culture cells was quantitated to measure the transcriptional inhibition of hIL-6 when treated with a compound of the present disclosure.
A human leukemic monocyte lymphoma cell line (U937) was plated (3.2×10^4 cells per well) in a 96-well plate in […] RPMI-1640 containing 10% FBS and penicillin/streptomycin, and differentiated into macrophages for 3 days in 60 ng/mL PMA ([…]) at 37° C. in 5% CO2 prior to the addition of the compound of interest. The cells were pretreated for 1 h with the test compound prior to stimulation with 1 ug/mL lipopolysaccharide from Escherichia coli. The cells were incubated at 37-C for 3 h before the cells were harvested. At time of harvest, the spent media was removed from the cells and the cells were rinsed in 200 μL PBS. Cell lysis solution (70 μL) was added the cells in each well and incubated for 5-10 min at room temperature, to allow for complete cell lysis and detachment. mRNA was then prepared using the “mRNA Catcher PLUS plate” (Invitrogen), according to the protocol supplied. After the last wash, as much wash buffer as possible was aspirated without allowing the wells to dry. Elution buffer (E3, 70 μL) was then added to each well. mRNA was then eluted by incubating the mRNA Catcher PLUS plate with Elution Buffer for 5 min at 68° C. and then immediately placing the plate on ice.
The eluted mRNA isolated was then used in a one-step quantitative real-time PCR reaction, using components of the Ultra Sense Kit together with Applied Biosystems primer-probe mixes. Real-time PCR data was analyzed, normalizing the Ct values for hIL-6 to an internal control, prior to determining the fold induction of each unknown sample, relative to the control.

[3] = test system: c-myc; assay: Inhibition of c-myc expression (mRNA, real-time PCR) in MV4-11 cells; format: cell-based; parameters: key: Active: Compounds with an IC50 value less than 30 μM were deemed to be active.; Not Active: Compounds with an IC50 value less than 30 μM were deemed to be active; conditions: Human AML MV4-11 cells, 3 hours
Protocol: MV4-11 cells (2.5×10^4 cells) were plated in 96 well U-bottom plates with test compound or DMSO (0.1%), and incubated for 3 hours at 37° C. Cells were then harvested by centrifugation, lysed, and mRNA was isolated using the mRNA catcher plus kit (Invitrogen). Reverse transcription of the mRNA and duplex amplification of the c-myc and cyclophilin cDNAs was performed using the RNA Ultrasense kit (Invitrogen) and a ViiA7 real-time PCR machine (Applied Biosystems). IC50 values were determined from a dose response curve.

[4] = test system: Human AML MV-4-11 cells; assay: Inhibition of cell proliferation in MV4-11 cells; format: cell-based; parameters: key: Active: Compounds with an IC50 value less than 30 μM are deemed to be active.; Not Active: Compounds with an IC50 value less than 30 μM are deemed to be active; conditions: 72 hours
Protocol: MV4-11 cells: 96-well plates were seeded with 5×10^4 cells per well of exponentially growing human AML MV-4-11 (CRL-9591) cells and immediately treated with two-fold dilutions of test compounds, ranging from 30 μM to 0.2 μM. Triplicate wells were used for each concentration, as well as a media only and three DMSO control wells. The cells and compounds were incubated at 37° C., 5% CO2 for 72 hours before adding 20 μL of the CellTiter Aqueous One Solution (Promega) to each well and incubating at 37° C., 5% CO2 for an additional 3-4 hours. The absorbance was taken at 490 nm in a spectrophotometer and the percentage of proliferation relative to DMSO-treated cells was calculated after correction from the blank well. IC50 were calculated using the GraphPad Prism software.

[5] = test system: hApoA-1 mRNA; assay: Up-regulation of hApoA-1 mRNA transcription in Huh7 cells; format: cell-based, human; parameters: key: Active: Compounds with an EC170 value less than 30 μM are deemed to be active.; Not Active: Compounds with an EC170 value less than 30 μM are deemed to be active; conditions: 48 hrs treatment, ApoA-I mRNA
Protocol: In this example, ApoA-I mRNA in tissue culture cells was quantitated to measure the transcriptional up-regulation of ApoA-I when treated with a compound of the present disclosure.
Huh7 cells ([…] per well) were plated in a 96-well plate using 100 μL DMEM per well, (Gibco DMEM supplemented with penicillin/streptomycin and 10% FBS), 24 h before the addition of the compound of interest. After 48 hrs treatment, the spent media was removed from the Huh-7 cells and placed on ice (for immediate use) or at −80° C. (for future use) with the “LDH cytotoxicity assay Kit II” from Abcam. The cells remaining in the plate were rinsed with 100 μL PBS.
Then 85 μL of cell lysis solution was added to each well and incubated for 5-10 minutes at room temperature, to allow for complete cell lysis and detachment. mRNA was then prepared using the “mRNA Catcher PLUS plate” from Life Technologies, according to the protocol supplied. After the last wash, as much wash buffer as possible was aspirated without allowing the wells to dry. Elution Buffer (E3, 80 μL) was then added to each well. mRNA was then eluted by incubating the mRNA Catcher PLUS plate with Elution Buffer for 5 minutes at 68° C., and then 1 minute at 4° C. Catcher plates with mRNA eluted were kept on ice for use or stored at −80° C.
The eluted mRNA isolated was then used in a one-step real-time PCR reaction, using components of the Ultra Sense Kit together with Life Technologies primer-probe mixes. Real-time PCR data was analyzed, using the Ct values, to determine the fold induction of each unknown sample, relative to the control (that is, relative to the control for each independent DMSO concentration).
Compounds with an EC170 value less than 30 μM are deemed to be active.

Row | melting point | FRET activity (IC50 < 30 μM) [1] | IL-6 activity (IC50 < 30 μM) [2] | c-myc activity (IC50 < 30 μM) [3] | cell proliferation activity (IC50 < 30 μM) [4] | Structure (SMILES) | ApoA-1 activity (EC170 < 30 μM) [5]
1 | 138 to 139 °C | – | – | – | – | COc1cc(OC)c2c(=O)[nH]c(-c3ccc(OCCO)c(N4CCN(C(C)C)CC4)n3)nc2c1 (as salt: acetate) [Example 13, 2-(5-(2-Hydroxyethoxy)-6-(4-isopropylpiperazin-1-yl)pyridin-2-yl)-5,7-dimethoxyquinazolin-4(3H)-one acetate] | –
2 | 186 to 188 °C | – | – | – | – | COc1cc(OC)c2c(=O)[nH]c(-c3ccc(OCCNC(C)C)c(N4CCN(C(C)C)CC4)n3)nc2c1 (as salt: trifluoroacetate) [Example 12, 2-(5-(2-(Isopropylamino)ethoxy)-6-(4-isopropylpiperazin-1-yl)pyridin-2-yl)-5,7-dimethoxyquinazolin-4(3H)-one bis(trifluoroacetate)] | –
3 | 176 to 177 °C | Active | Active | – | – | COC(=O)CN1CCN(c2cccc(-c3nc4cc(OC)cc(OC)c4c(=O)[nH]3)n2)CC1 [Example 7, Methyl 2-(4-(6-(5,7-dimethoxy-4-oxo-3,4-dihydroquinazolin-2-yl)pyridin-2-yl)piperazin-1-yl)acetate] | –
4 | 225 °C (dec.) | Active | Not Active | – | – | COc1cc(OC)c2c(=O)[nH]c(-c3cccc(N4CCN(CC(=O)O)CC4)n3)nc2c1 [Example 10, 2-(4-(6-(5,7-Dimethoxy-4-oxo-3,4-dihydroquinazolin-2-yl)pyridin-2-yl)piperazin-1-yl)acetic acid] | –
5 | – | Active | Not Active | Active | Active | COc1cc(OC)c2c(=O)[nH]c(-c3ccc(OCCNC(C)C)c(N4CCN(C(C)C)CC4)n3)nc2c1 [Example 12, 2-(5-(2-(Isopropylamino)ethoxy)-6-(4-isopropylpiperazin-1-yl)pyridin-2-yl)-5,7-dimethoxyquinazolin-4(3H)-one bis(trifluoroacetate)] | Active
6 | – | Active | Active | Active | Not Active | COc1cc(OC)c2c(=O)[nH]c(-c3ccc(OCCO)c(N4CCN(C(C)C)CC4)n3)nc2c1 [Example 13, 2-(5-(2-Hydroxyethoxy)-6-(4-isopropylpiperazin-1-yl)pyridin-2-yl)-5,7-dimethoxyquinazolin-4(3H)-one acetate] | Active
7 | – | Active | Active | Active | Active | COc1cc(OC)c2c(=O)[nH]c(-c3cccc(N4CCN(C)CC4)n3)nc2c1 [Example 15, 5,7-Dimethoxy-2-(6-(4-methylpiperazin-1-yl)pyridin-2-yl)quinazolin-4(3H)-one Hydrochloride] | Active
8 | – | Active | Active | Active | Active | COc1cc(OC)c2c(=O)[nH]c(-c3cccc(N4CCC(N(C)C)CC4)n3)nc2c1 [Example 29, 2-(6-(4-(Dimethylamino)piperidin-1-yl)pyridin-2-yl)-5,7-dimethoxyquinazolin-4(3H)-one] | Active
9 | – | Active | Active | Active | Active | COc1cc(OC)c2c(=O)[nH]c(-c3cc(Cl)cc(N4CCN(C(C)C)CC4)c3)nc2c1 [Example 32, 2-(3-Chloro-5-(4-isopropylpiperazin-1-yl)phenyl)-5,7-dimethoxyquinazolin-4(3H)-one] | Active

Row | Structure (SMILES) | melting point | FRET activity (IC50 < 30 μM) [1] | IL-6 activity (IC50 < 30 μM) [2] | c-myc activity (IC50 < 30 μM) [3] | cell proliferation activity (IC50 < 30 μM) [4] | ApoA-1 activity (EC170 < 30 μM) [5]
10 | CCC(=O)N1CCN(c2cccc(-c3nc4cc(OC)cc(OC)c4c(=O)[nH]3)n2)CC1 [Example 19, 5,7-Dimethoxy-2-(6-(4-propionylpiperazin-1-yl)pyridin-2-yl)quinazolin-4(3H)-one dihydrochloride] | – | Active | Not Active | Not Active | Not Active | Active
11 | COc1cc(OC)c2c(=O)[nH]c(-c3cc(Cl)cc(N4CCNCC4)c3)nc2c1 [Example 31, 2-(3-Chloro-5-(piperazin-1-yl)phenyl)-5,7-dimethoxyquinazolin-4(3H)-one] | – | Active | Active | Active | Active | Active

Source: US9278940B2, “Cyclic amines as bromodomain inhibitors” (Zenith Epigenetics Corp., priority 2012, dated 2016)
